This note sets out measurements from patent US20090088373A1, “USE OF COMPOSITIONS TO ENHANCE INNATE IMMUNE RESPONSE” (priority 2007, published 2009).

For assay [1], the system named is Staphylococcus aureus ΔmprF. As to the kind of experiment: Growth of S. aureus ΔmprF (OD600) mixed with lysates of stimulated normal human keratinocytes. The format is cell-based. As to conditions: S. aureus + lysates of NHEK stimulated with 10 nM pimecrolimus, 1 nM 1.25D3 or combination, 37° C. Here is the method:
To assess the effect of pimecrolimus on the innate immune response of the epidermis against bacteria, cultures of normal human keratinocytes (NHEK) are stimulated with a concentration of 10 nM pimecrolimus, 1 nM 1.25D3 (active 1.25 D-hydroxy calciferol) or their combination. Cells are lysed via sonication 20 minutes in an ice bath, after which cell lysates were mixed with Staphylococcus aureus ΔmprF cultures and incubated at 37° C. Bacterial growth over time is monitored by OD600 (Table 1). To determine if Pimecrolimus alone was able to kill Staphylococcus aureus ΔmprF, Pimecrolimus in a concentration of 10 nM is co-incubated with Staphylococcus aureus ΔmprF cultures and incubated at 37° C. (Table 2). Bacterial growth is monitored by OD600 (*: p<0.05; **: p<0.01; Student's t-test).

The test system of the next assay is cathelicidin. In words: Cathelicidin mRNA expression in normal human keratinocytes (NHEK). Format: cell-based. On the set-up: Cathelicidin mRNA expression (Mean) / Cathelicidin mRNA expression (means): unit not given here. The note with it: for Cathelicidin mRNA expression (Means of N = 3): Example 6, 10 nM Pimecrolimus, 1 nM 1,25D3; for Cathelicidin mRNA expression (means): 1 uM tacrolimus, 1 ug/ml CsA, 25ng/ml rapamycin. The protocol: (§1) To assess the effect of pimecrolimus on the innate immune response of the epidermis, cultures of normal human keratinocytes (NHEK) are stimulated with combinations of a concentration of 10 nM pimecrolimus, 1 μg/ml TLR 2/CD14 ligand—peptidoglycan (PGN), 10 μg/ml lipoteichoic acid (LTA), 2 0.1 μg/ml TLR 2/6 ligand—Malp-, and/or 0.1 μg/ml TLR 4/CD14 ligand—lipopolysaccharide (LPS). Expression of cathelicidin mRNA (Table 3) and protein as well as Human Beta Defensin (HBD) 2 (Table 4) and HBD3 (Table 5) expression in normal human keratinocytes is measured.
(§2) To assess the effect of pimecrolimus on the innate immune response of the epidermis, cultures of normal human keratinocytes (NHEK) are stimulated with a concentration of 10 nM pimecrolimus,1 nM 1.25 D3, 0.1 μg/ml TLR2/6 ligand Malp-2 or their combination. Expression of cathelicidin, CD14 and TLR2 mRNA normal human keratinocytes is measured and evaluated accordingly to the procedures as detailed in Example 2 above.
To assess the effect of pimecrolimus on the innate immune response of the epidermis, cultures of normal human keratinocytes (NHEK) are stimulated with a concentration of 10 nM pimecrolimus, 1 uM tacrolimus, 1 ug/ml CsA, 25ng/ml rapamycin, or a combination of pimecrolimus and rapamycin, each of these with or without 0.1 μg/ml TLR2/6 ligand Malp-2. Cathelicidin mRNA expression is evaluated.
(§3) To assess the effect of time dependent effects of pimecrolimus on the innate immune response of the epidermis, cultures of normal human keratinocytes (NHEK) are stimulated with 10 nM Pimecrolimus and low dose calciferol (1,25D3) 1 nM for different time points. mRNA expression of cathelicidin, CD14 and TLR2 is analyzed by qPCR.
To assess the effect of varying levels of pimecrolimus on the innate immune response of the epidermis, cultures of normal human keratinocytes (NHEK) are stimulated with 0 nM, 5 nM, 10 nM, 20 nM, 30 nM, […], […] and 60 nM concentrations of pimecrolimus. Expression of cathelicidin mRNA expression is measured and evaluated accordingly to the procedures as detailed in Example 2 above.
(§4) To assess the effect of calciferol on varying levels of pimecrolimus on the innate immune response of the epidermis, cultures of normal human keratinocytes (NHEK) are stimulated with 0.01 nM, 0.1 nM, 1 nM and 10 nM concentrations of pimecrolimus with or without 1 nM concentrations of calciferol for 24 hours. Expression of cathelicidin mRNA and gene expression of TLR2 is measured and evaluated accordingly to the procedures as detailed in Example 2 above.

A further assay concerns TLR1. In words: TLR1 gene expression by qPCR in NHEK. Format: cell-based, human. As to conditions: Example 3; 10 nM pimecrolimus, 1 nM 1.25D3. Here is the method: (§5) To assess the effect of pimecrolimus on the innate immune response of the epidermis, cultures of normal human keratinocytes (NHEK) are stimulated with a combination of a concentration of 10 nM pimecrolimus and of 1 nM 1.25D3. Gene expression of TLR1, TLR2, TLR4, TLR6 and CD14 are evaluated by qPCR. For CD14 protein expression, a Western Blot is performed and bands are quantified by densitometry using lmagej. Vehicle treated keratinocytes serve as controls. Cathelicidin protein expression is evaluated by immunofluorescence staining.

The test system of the next assay is TLR2. In words: TLR2 gene expression by qPCR in NHEK. As to conditions: for TLR2 mRNA expression (Mean): 10 nM pimecrolimus; for TLR2 mRNA expression (Means of N = 3): Example 6, 10 nM Pimecrolimus, 1 nM 1,25D3. Format: cell-based, human. The protocol:
as §5, §2, §3, §4
(Quantitative PCR measures a nucleic acid by following its amplification.)

The subject of a further assay is TLR6. As to the kind of experiment: TLR6 gene expression by qPCR in NHEK. Format: cell-based, human. The note with it: Example 3; 10 nM pimecrolimus, 1 nM 1.25D3. The protocol: as §5
The next assay has as its system CD14. In words: CD14 gene expression by qPCR in NHEK. The format is cell-based, human. The note with it: for CD14 mRNA expression (Mean): 10 nM pimecrolimus; for CD14 mRNA expression (Means of N = 3): Example 6, 10 nM Pimecrolimus, 1 nM 1,25D3. The protocol:
as §5, §2, §3

Assay [2] has as its system Human Beta Defensin (HBD) 2. In words: HBD2 expression in normal human keratinocytes (NHEK). Format: cell-based. On the set-up: unit not given here. The note with it: Example 2; TLR ligand alone, without Pimecrolimus. The protocol: as §1
For another assay, the system named is HBD3. As to the kind of experiment: HBD3 expression in normal human keratinocytes (NHEK). The format is cell-based. More on the design: unit not given here. The note with it: Example 2; TLR ligand alone, without Pimecrolimus. The protocol:
as §1

[3] abbreviates: Example 4, 1 nM 1.25 D3, 0.1 μg/ml Malp-2 or combination.
Where [4] appears, read: Example 2, TLR ligand alone, without Pimecrolimus (1 μg/ml PGN, 10 μg/ml LTA, 0.1 μg/ml Malp-2, 0.1 μg/ml LPS).
Where [5] appears, read: Example 5, Experiment 1, with 0.1 μg/ml Malp-2, 10 nM pimecrolimus.
[6] abbreviates: Example 5, Experiment 1, without Malp-2, 10 nM pimecrolimus.
The mark [7] stands for this setting: Example 5, Experiment 2, with 0.1 μg/ml Malp-2, 10 nM pimecrolimus.
[8] abbreviates: Example 5, Experiment 2, without Malp-2, 10 nM pimecrolimus.

Take `C=C1/C(=C\C=C2/CCC[C@]3(C)[C@@H]([C@H](C)CCCC(C)(C)O)CC[C@@H]23)C[C@@H](O)C[C@@H]1O` [1.25D3, 1.25 D-hydroxy calciferol]: the “Bacterial growth OD600 (Mean)” value in assay [1] (0 h) was 0.2203; in assay [1] (2 h), 0.2677; in assay [1] (4 h) it was 0.301; in assay [1] (5 h), 0.3963; in assay [1] (6 h) it was 0.513; in assay [1] (8 h), 0.6203. Moreover, the “Cathelicidin mRNA expression (Mean)” value in the assay with cathelicidin (Example 4, 10 nM pimecrolimus, 1 nM 1.25 D3, 0.1 μg/ml Malp-2 or combination) stood at 2.76. The “Cathelicidin mRNA expression (Means of N = 3)” value with cathelicidin (0 h) is 1.00; in the assay on cathelicidin (8 h), 35.04; with cathelicidin (24 h) it was 134.03; in the assay on cathelicidin (48 h) it was 92.37. In the assay with TLR1, the “TLR1 mRNA expression (Mean)” value is listed as 1.93. Also, the “TLR2 mRNA expression (Mean)” value in the assay with TLR2 (Example 3, 1 nM 1.25D3) is given as 0.66; in the assay on TLR2 (setting [3]), 0.10. The “TLR2 mRNA expression (Means of N = 3)” value is on record as 1.00 in the assay on TLR2 (0 h), 1.32 with TLR2 (8 h), 1.51 with TLR2 (24 h) and 1.55 with TLR2 (48 h). Further, the “TLR6 mRNA expression (Mean)” value in the assay with TLR6 amounted to 1.01. For the same compound, the “CD14 mRNA expression (Mean)” value with CD14 (Example 3, 1 nM 1.25D3) was determined as 3.01; with CD14 (setting [3]), 3.01. The “CD14 mRNA expression (Means of N = 3)” value came out at 0.71 with CD14 (0 h), 38.35 with CD14 (8 h), 12.26 with CD14 (24 h) and 0.93 with CD14 (48 h).
For lipoteichoic acid [LTA], the “Cathelicidin mRNA expression (Mean)” value in the assay with cathelicidin (setting [4]) came out at 3.82. Besides, in assay [2], the “HBD2 expression (Mean)” value was determined as 4.43. In addition, the “HBD3 expression (Mean)” value with HBD3 was determined as 2.46.
Consider `C=CC[C@@H]1/C=C(\C)C[C@H](C)C[C@H](OC)[C@H]2O[C@@](O)(C(=O)C(=O)N3CCCC[C@H]3C(=O)O[C@H](/C(C)=C/[C@@H]3CC[C@@H](O)[C@H](OC)C3)[C@H](C)[C@@H](O)CC1=O)[C@H](C)C[C@@H]2OC` [Tacrolimus, tacrolimus], for which the “Cathelicidin mRNA expression (means)” value in the assay with cathelicidin (setting [5]) worked out at 5.47; in the assay with cathelicidin (setting [6]), 0.67; in the assay on cathelicidin (setting [7]) it was 0.77; with cathelicidin (setting [8]), 3.34.
For `CO[C@H]1C[C@@H]2CC[C@@H](C)[C@@](O)(O2)C(=O)C(=O)N2CCCC[C@H]2C(=O)O[C@H]([C@H](C)C[C@@H]2CC[C@@H](O)[C@H](OC)C2)CC(=O)[C@H](C)/C=C(\C)[C@@H](O)[C@@H](OC)C(=O)[C@H](C)C[C@H](C)/C=C/C=C/C=C/1C` [Rapamycin, rapamycin], in that order: 4.03, 5.13, 12.38 and 5.85.
With lipopolysaccharide [LPS], in the assay with cathelicidin (setting [4]), the “Cathelicidin mRNA expression (Mean)” value was found to be 0.65. In addition, in assay [2], the “HBD2 expression (Mean)” value is 5.68. Besides, the “HBD3 expression (Mean)” value with HBD3 was 1.39.
Take Malp-2: in the assay on cathelicidin (setting [4]), the “Cathelicidin mRNA expression (Mean)” value is on record as 2.29. The “Cathelicidin mRNA expression (means)” value amounted to 1.53 with cathelicidin (setting [5]) and 3.19 in the assay with cathelicidin (setting [7]). For the same compound, in assay [2], the “HBD2 expression (Mean)” value is recorded as 119.16. In the assay on HBD3, the “HBD3 expression (Mean)” value turned out to be 3.51.
Turning to peptidoglycan [PGN], in the assay on cathelicidin (setting [4]), the “Cathelicidin mRNA expression (Mean)” value was determined as 1.18. Further, in assay [2], the “HBD2 expression (Mean)” value was found to be 3.26. Moreover, the “HBD3 expression (Mean)” value with HBD3 is on record as 0.61.
